Measurements: patent US4489094A, “Arylalkylaminobenzoic acids” (American Cyanamid Company, priority 1983, dated 1984)

Each compound was assayed against T1, fatty acyl CoA: cholesterol acyl transferase (ACAT) (Rattus norvegicus, UniProt O70536) (assay: Inhibition of enzymatic esterification of cholesterol (ACAT), rat adrenal microsomal supernatant). Conditions: final concentration of test compound 5.2 μg./ml.; percent inhibition of the ACAT enzyme compared to control values.
T1 construct: Rat adrenals were homogenized; from tissue; host or cells: rat adrenals, 1,000 x g supernatant containing the microsomal fraction
T1 sequence (O70536 1-545): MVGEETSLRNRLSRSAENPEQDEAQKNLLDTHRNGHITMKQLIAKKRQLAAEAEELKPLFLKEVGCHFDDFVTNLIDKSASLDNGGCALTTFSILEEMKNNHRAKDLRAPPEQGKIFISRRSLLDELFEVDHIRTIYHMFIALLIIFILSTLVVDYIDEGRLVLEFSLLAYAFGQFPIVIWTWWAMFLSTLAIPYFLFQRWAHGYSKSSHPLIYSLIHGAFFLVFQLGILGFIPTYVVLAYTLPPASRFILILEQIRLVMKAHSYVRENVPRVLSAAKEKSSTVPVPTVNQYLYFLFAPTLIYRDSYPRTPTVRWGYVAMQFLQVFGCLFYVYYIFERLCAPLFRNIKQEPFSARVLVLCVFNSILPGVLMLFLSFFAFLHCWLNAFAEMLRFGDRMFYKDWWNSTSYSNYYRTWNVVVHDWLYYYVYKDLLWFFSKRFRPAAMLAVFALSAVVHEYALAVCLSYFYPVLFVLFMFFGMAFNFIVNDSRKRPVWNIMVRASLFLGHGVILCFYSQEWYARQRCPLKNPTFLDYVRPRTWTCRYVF
Format: biochemical
Protocol: The compounds of the present invention were tested for their ability to inhibit the enzymatic esterification of cholesterol according to the following procedure:
Rat adrenals were homogenized in 0.2M monobasic potassium phosphate buffer, pH 7.4, and centrifuged at 1,000 times gravity for 15 minutes at 5° C. The supernatant, containing the microsomal fraction, served as the source of the cholesterol-esterifying enzyme, fatty acyl CoA: cholesterol acyl transferase (ACAT). A mixture comprising 50 parts of adrenal supernatant, 10 parts of albumin (BSA) (50 mg./m.), […], 3 parts of test compound, and 500 parts of buffer was pre-incubated at 37° C. for 10 minutes. After treatment with 20 parts of oleoyl CoA (^14 C-0.4 μCi), the mixture was incubated at 37° C. for 10 minutes. A control mixture, omitting the test compound, was prepared and treated in the same manner. The lipids from the incubation mixture were extracted into an organic solvent and separated by thin-layer chromatography. The cholesterol ester fraction was counted in a scintillation counter. This procedure is a modification of that described by Hashimoto, et al. Life Scie., 12 (Part II), 1-12 (1973).
The results of this test on representative compounds of this invention appear in Table I. The final concentration of the test compound was 5.2 μg./ml., and effectiveness of the compound is expressed as percent inhibition of the ACAT enzyme compared to control values.

| Structure (SMILES) | inhibition at 5.2 µg/mL [%] |
| --- | --- |
| O=C(O)c1ccc(N(CCCc2ccc(Cl)cc2)CCCc2ccc(Cl)cc2)cc1 [4-[Bis[3-(p-chlorophenyl)propyl]amino]benzoic acid] | 33 |
| CCOC(=O)c1ccc(NCC=C(c2ccc(Cl)cc2)c2ccc(Cl)cc2)cc1 [4-[[3,3-Bis(p-chlorophenyl)allyl]amino]benzoic acid, ethyl ester] | 81 |
| O=C(O)c1ccc(NCC=C(c2ccc(Cl)cc2)c2ccc(Cl)cc2)cc1 [4-[[3,3-Bis(p-chlorophenyl)allyl]amino]benzoic acid] | 46 |
| CCOC(=O)c1ccc(N(CC)CCCc2ccc(Cl)cc2)cc1 [4-[[3-(p-Chlorophenyl)propyl]ethylamino]benzoic acid, ethyl ester] | 48 |
| CCN(CCCc1ccc(Cl)cc1)c1ccc(C(=O)O)cc1 [4-[[3-(p-Chlorophenyl)propyl]ethylamino]benzoic acid] | 33 |
| CCOC(=O)c1ccc(N(C)CCCc2ccc(Cl)cc2)cc1 [4-[[3-(p-Chlorophenyl)propyl]methylamino]benzoic acid, ethyl ester] | 53 |
| CN(CCCc1ccc(Cl)cc1)c1ccc(C(=O)O)cc1 [4-[[3-(p-Chlorophenyl)propyl]methylamino]benzoic acid] | 24 |
| O=C(O)c1ccc(NCc2ccc(Cl)cc2)cc1 [4-[[(p-chlorophenyl)methyl]amino]benzoic acid] | 6 |

The next lines start with the values.

| inhibition at 5.2 µg/mL [%] | Structure (SMILES) |
| --- | --- |
| 19 | O=C(O)c1ccc(NCC(c2ccc(Cl)cc2)c2ccc(Cl)cc2)cc1 [4-[[2,2-Bis(p-chlorophenyl)ethyl]amino]benzoic acid] |
| 89 | CCOC(=O)c1ccc(NCCC(c2ccc(Cl)cc2)c2ccc(Cl)cc2)cc1 [4-[[3,3-Bis(p-chlorophenyl)propyl]amino]benzoic acid, ethyl ester] |
| 21 | O=C(O)c1ccc(NCCC(c2ccc(Cl)cc2)c2ccc(Cl)cc2)cc1 [4-[[3,3-Bis(p-chlorophenyl)propyl]amino]benzoic acid] |
| 55 | CCOC(=O)c1ccc(NC(c2ccc(Cl)cc2)c2ccc(Cl)cc2)cc1 [4-[[Bis(p-chlorophenyl)methyl]amino]benzoic acid, ethyl ester] |
